According to PubChem BioAssay AID2060485 (Molecular Pharmacology Branch, DTP, NCI, 2025):
pIC50: −log10 of the molar value.

Tested on: A375 multi-cell spheroids with HUVEC/MSC, viability
Assay: Anticancer human tumor A375 cell line growth inhibition [GQUAD];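 also: spheroids exposed to compounds for seven days before readout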
Details: for pIC50: curve of first compound; for viability, T/C: stronger effect = lower value
Description: DNA G-quadruplex Stabilizer Agents in Combinations in Complex Spheroids
A high-throughput screen of multi-cell type tumor spheroids was designed to identify active combinations of DNA G-quadruplex stabilizer agents and targeted small molecules. Complex spheroids include a stromal component modeled by human endothelial cells (HUVEC) and fibroblasts modeled by human mesenchymal stem cells (MSCs). The concentration ranges selected for each drug and investigational agent were based upon clinically achievable concentrations if the clinical Cmax of the agent was known.
Compounds. The drugs and investigational agents: pidnarulex (CX-5461; NSC782164), APTO-253 (NSC789042), BRACO-19 (NSC847499), peposertib (NSC802822), ceralasertib (NSC780249), elimusertib (NSC800525), camonsertib (NSC841442), AZD-1390 (NSC803789), olaparib (NSC753686), talazoparib (NSC767125), ART-558 (NSC835418), sotorasib (NSC818433), MRTX-1133 (NSC836407), SN-38 (NSC673596), topotecan (NSC609699), etoposide (NSC141540), doxorubicin (NSC123127), gemcitabine (NSC613327), 5-fluorouracil (NSC19893), paclitaxel (NSC125973), vemurafenib (NSC761431), panobinostat (NSC761190), R-306465 (JNJ-16241199; NSC773264), adavosertib (NSC754352), TP-3654 (NSC805149), carboplatin (NSC241240), KSQ-4279 (NSC840948), and staurosporine (NSC755774) were obtained from the National Cancer Institute (NCI) Developmental Therapeutics Program Chemical Repository (34). The FDA-approved anticancer drug set is available from the NCI Developmental Therapeutics Program. […] The stock solutions were prepared in dimethyl sulfoxide (DMSO, Sigma-Aldrich, St. Louis, MO, cat. D2650) at 800-fold the tested concentration and stored at -70 degrees C prior to their use. All drugs and investigational agents were tested over a range starting from a high concentration at or near the clinical Cmax and decreasing in half-log increments. If the clinical Cmax for an agent had not been determined, the highest concentration tested was 10 microM.
2.3 Cell Culture. All cells were maintained in an incubator at 37 degrees C and 5% CO2 with 95% humidity. The PDC lines were cultured according to standard operating procedures established by the NCI PDMR. All PDCs were thawed and cultured in Matrigel-coated flasks prepared with a working solution of 1X Ham's F-12 nutrient mix, without supplementation (Invitrogen, cat. 11765054), 100 U/mL penicillin-streptomycin (Invitrogen, cat. 15140122), and 2.5% Matrigel (Corning Inc., cat. 354248) for the first three passages. The 857933-349-R-J2-PDC line was cultured in 6C/Colon 1B media, which includes advanced DMEM/F-12 (Thermo Fisher Scientific, cat. 12634028), 10 mM HEPES (Thermo Fisher Scientific, cat. 15630080), 1X GlutaMAX supplement (Thermo Fisher Scientific, cat. 35050061), 0.1 mg/mL primocin (InvivoGen, cat. ant-pm-2), 10% defined fetal bovine serum, heat inactivated (HyClone Laboratories Inc., cat. SH30070.03HI), 50% L-WRN conditioned media (ATCC, cat. CRL-3276), 1.25 mM N-Acetyl-L-cysteine (Sigma-Aldrich, cat. A9165), 10 mM nicotinamide (Sigma-Aldrich, cat. N0636), 1X B-27 supplement (Thermo Fisher Scientific, cat. 17504044), 1X N-2 supplement (Thermo Fisher Scientific, cat. 17502048), 10 microM Y-27632 dihydrochloride (Tocris Bioscience, cat. 1254), and 50 ng/mL human EGF recombinant protein (Thermo Fisher Scientific, cat. PHG0311). The 485176-168-R4-J1-PDC line was cultured in Panc media, which includes all 6C/Colon 1B media components plus 100 ng/mL human FGF-10 (Thermo Fisher Scientific, cat. 100-26), 500 nM SB-431542 (Selleckchem, cat. S1067), and gastrin (Tocris, cat. 3006).
[…]

[1] = second compound 0.0316 µM, first compound 0.0316 µM
[2] = second compound 0.0316 µM, first compound 0.1 µM
[3] = second compound 0.0316 µM, first compound 0.316 µM
[4] = second compound 0.0316 µM, first compound 1 µM
[5] = second compound 0.0316 µM, first compound 3.16 µM
[6] = second compound 0.0316 µM, first compound 10 µM
[7] = second compound 0.1 µM, first compound 0.0316 µM
[8] = second compound 0.1 µM, first compound 0.1 µM
[9] = second compound 0.1 µM, first compound 0.316 µM
[10] = second compound 0.1 µM, first compound 1 µM
[11] = second compound 0.1 µM, first compound 3.16 µM
[12] = second compound 0.1 µM, first compound 10 µM
[13] = second compound 0.316 µM, first compound 0.0316 µM
[14] = second compound 0.316 µM, first compound 0.1 µM
[15] = second compound 0.316 µM, first compound 0.316 µM
[16] = second compound 0.316 µM, first compound 1 µM
[17] = second compound 0.316 µM, first compound 3.16 µM
[18] = second compound 0.316 µM, first compound 10 µM
[19] = second compound 1 µM, first compound 0.0316 µM
[20] = second compound 1 µM, first compound 0.1 µM
[21] = second compound 1 µM, first compound 0.316 µM
[22] = second compound 1 µM, first compound 1 µM
[23] = second compound 1 µM, first compound 3.16 µM
[24] = second compound 1 µM, first compound 10 µM
[25] = second compound 3.16 µM, first compound 0.0316 µM
[26] = second compound 3.16 µM, first compound 0.1 µM
[27] = second compound 3.16 µM, first compound 0.316 µM
[28] = second compound 3.16 µM, first compound 1 µM
[29] = second compound 3.16 µM, first compound 3.16 µM
[30] = second compound 3.16 µM, first compound 10 µM
[31] = second compound 10 µM, first compound 0.0316 µM
[32] = second compound 10 µM, first compound 0.1 µM
[33] = second compound 10 µM, first compound 0.316 µM
[34] = second compound 10 µM, first compound 1 µM
[35] = second compound 10 µM, first compound 3.16 µM
[36] = second compound 10 µM, first compound 10 µM

SMILES: CC(C)n1c(=O)n(C)c2cnc3cc(F)c(-c4ccc(OCCCN5CCCCC5)nc4)cc3c21 + CN(C)c1ccc(Nc2c3ccc(NC(=O)CCN4CCCC4)cc3nc3cc(NC(=O)CCN4CCCC4)ccc23)cc1
- pIC50 (second compound 0.0316 µM): < 5.00
- pIC50 (second compound 0.1 µM): < 5.00
- pIC50 (second compound 0.316 µM): < 5.00
- pIC50 (second compound 1 µM): < 5.00
- pIC50 (second compound 3.16 µM): < 5.00
- pIC50 (second compound 10 µM): 5.32
- viability, T/C [1]: 109%
- viability, T/C [2]: 99.5%
- viability, T/C [3]: 105%
- viability, T/C [4]: 106%
- viability, T/C [5]: 114%
- viability, T/C [6]: 88.3%
- viability, T/C [7]: 108%
- viability, T/C [8]: 106%
- viability, T/C [9]: 97.9%
- viability, T/C [10]: 98.5%
- viability, T/C [11]: 115%
- viability, T/C [12]: 91.2%
- viability, T/C [13]: 103%
- viability, T/C [14]: 97.1%
- viability, T/C [15]: 103%
- viability, T/C [16]: 109%
- viability, T/C [17]: 116%
- viability, T/C [18]: 78.3%
- viability, T/C [19]: 103%
- viability, T/C [20]: 102%
- viability, T/C [21]: 108%
- viability, T/C [22]: 108%
- viability, T/C [23]: 110%
- viability, T/C [24]: 78%
- viability, T/C [25]: 97.4%
- viability, T/C [26]: 98.1%
- viability, T/C [27]: 104%
- viability, T/C [28]: 103%
- viability, T/C [29]: 107%
- viability, T/C [30]: 59.6%
- viability, T/C [31]: 102%
- viability, T/C [32]: 96.4%
- viability, T/C [33]: 94.2%
- viability, T/C [34]: 89.4%
- viability, T/C [35]: 61%
- viability, T/C [36]: 30.5%

SMILES: CC1COCCN1c1cc(-c2ccnn2C)c2ccnc(-c3ccn[nH]3)c2n1 (centres undefined) + CN(C)c1ccc(Nc2c3ccc(NC(=O)CCN4CCCC4)cc3nc3cc(NC(=O)CCN4CCCC4)ccc23)cc1
- pIC50 (second compound 0.0316 µM): 6.51
- pIC50 (second compound 0.1 µM): 6.52
- pIC50 (second compound 0.316 µM): 6.46
- pIC50 (second compound 1 µM): 6.47
- pIC50 (second compound 3.16 µM): 6.50
- pIC50 (second compound 10 µM): 6.55
- viability, T/C [1]: 105%
- viability, T/C [2]: 78.3%
- viability, T/C [3]: 50.8%
- viability, T/C [4]: 25.8%
- viability, T/C [5]: 10%
- viability, T/C [6]: 9.41%
- viability, T/C [7]: 114%
- viability, T/C [8]: 82%
- viability, T/C [9]: 48.8%
- viability, T/C [10]: 26.6%
- viability, T/C [11]: 10.1%
- viability, T/C [12]: 9.57%
- viability, T/C [13]: 111%
- viability, T/C [14]: 82.6%
- viability, T/C [15]: 53.6%
- viability, T/C [16]: 26.7%
- viability, T/C [17]: 11.1%
- viability, T/C [18]: 9.6%
- viability, T/C [19]: 108%
- viability, T/C [20]: 82.9%
- viability, T/C [21]: 51.4%
- viability, T/C [22]: 27.5%
- viability, T/C [23]: 11.2%
- viability, T/C [24]: 8.68%
- viability, T/C [25]: 110%
- viability, T/C [26]: 83.9%
- viability, T/C [27]: 48.9%
- viability, T/C [28]: 28.2%
- viability, T/C [29]: 10.8%
- viability, T/C [30]: 10.2%
- viability, T/C [31]: 97.7%
- viability, T/C [32]: 74.2%
- viability, T/C [33]: 47.3%
- viability, T/C [34]: 27.6%
- viability, T/C [35]: 11.1%
- viability, T/C [36]: 9.62%
